Test results as given in patent publication US20200216416A1, “QUINOLINE COMPOUNDS AS INHIBITORS OF TAM AND MET KINASES” (Array BioPharma Inc., priority 2019, published 2020).

Key:
[1] = biological target: T1, human MET kinase del Ex14 (Homo sapiens, UniProt P08581, DEL963-1009); assay: c-Met Enzyme Assay, del Ex14 mutant; type: binding; details: averaged IC50; del Ex14 5 nM; 60-minute incubation at 22° C.; read-out: Del14 IC50
T1 construct: GST-tagged recombinant human MET kinase domain; purchased Signal Chem
T1 sequence (P08581 with tags, fused parts or gaps DEL963-1009 limits assumed): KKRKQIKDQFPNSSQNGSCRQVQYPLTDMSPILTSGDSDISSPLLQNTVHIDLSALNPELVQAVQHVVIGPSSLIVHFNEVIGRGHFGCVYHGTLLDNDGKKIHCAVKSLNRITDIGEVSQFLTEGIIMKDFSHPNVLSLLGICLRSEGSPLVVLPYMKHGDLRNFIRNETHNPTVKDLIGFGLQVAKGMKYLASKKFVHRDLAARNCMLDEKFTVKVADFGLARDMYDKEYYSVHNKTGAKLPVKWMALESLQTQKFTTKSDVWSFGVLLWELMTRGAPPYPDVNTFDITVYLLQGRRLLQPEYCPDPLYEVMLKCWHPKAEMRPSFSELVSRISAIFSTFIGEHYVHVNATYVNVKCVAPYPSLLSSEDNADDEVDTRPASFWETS
Protocol: (§1) The affinity of compound binding to wild type and mutant human MET kinases was measured using Invitrogen's LanthaScreen™ Eu Kinase Binding technology. Briefly, GST-tagged recombinant human MET kinase domain from Signal Chem (see Table 8 below for concentration in assay) was incubated with 50 nM Alexa-Fluor® Tracer 236 (Invitrogen Cat No. PR9078A) and 2 nM Europium-anti-GST (Invitrogen Cat. No. A15116) along with test compound in a buffer consisting of 25 mM HEPES, pH 7.4, 10 mM MgCl2, 0.01% Triton X-100, 1mM DTT, and 2% DMSO. Compounds were typically prepared in a three-fold serial dilution in DMSO and added to the assay to give the appropriate final concentration. After a 60-minute incubation at 22° C., the reaction was measured using a PerkinElmer EnVision multimode plate reader via TR-FRET dual wavelength detection, and the percent of control (POC) calculated using a ratiometric emission factor. […] The POC values were fit to a 4 parameter logistic curve and the IC50 value is point where the curve crosses 50 POC.

[2] = biological target: T2, GST-tagged recombinant human TYRO3 kinase domain (Homo sapiens, UniProt Q06418); assay: TYRO3 Enzyme Assay (LanthaScreen Eu Kinase Binding); details: averaged IC50; TYRO3 5 nM; 60-minute incubation at 22° C.; TR-FRET
T2 construct: GST-tagged recombinant human TYRO3 kinase domain; purchased Carna PR7480A
T2 sequence (Q06418 518-790 limits assumed): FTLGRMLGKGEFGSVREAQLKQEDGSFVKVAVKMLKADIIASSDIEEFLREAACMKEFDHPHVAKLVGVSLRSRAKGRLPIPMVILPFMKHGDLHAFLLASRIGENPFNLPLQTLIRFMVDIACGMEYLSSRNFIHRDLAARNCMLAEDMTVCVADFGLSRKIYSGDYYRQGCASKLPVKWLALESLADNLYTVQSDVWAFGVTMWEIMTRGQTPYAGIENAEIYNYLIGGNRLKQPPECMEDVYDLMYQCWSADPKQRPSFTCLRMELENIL
Protocol: Compounds disclosed herein were screened for their ability to inhibit TYRO3 kinase using Invitrogen's LanthaScreenTM Eu Kinase Binding technology. GST-tagged recombinant human TYRO3 kinase domain from Carna (5 nM; Cat. No. P[…]) was incubated with 20 nM Alexa-Fluor® Tracer 236 (P[…]) and 2 nM Europium-anti-GST (Cat. No. A15116) along with test compound in a buffer consisting of 25 mM HEPES, pH 7.4, 10 mM MgCl2, 0.01% Triton X-100, and 2% DMSO. Compounds are typically prepared in a threefold serial dilution in DMSO and added to the assay to give the appropriate final concentration. After a 60-minute incubation at 22° C., the reaction was measured using a PerkinElmer EnVision multimode plate reader via TR-FRET dual wavelength detection, and the percent of control (POC) calculated using a ratiometric emission factor. […] The POC values were fit to a 4 parameter logistic curve and the IC50 value is point where the curve crosses 50 POC.

[3] = biological target: T3, His-tagged recombinant human MER cytoplasmic domain (Homo sapiens, UniProt Q12866); assay: MER Enzyme Assay (LanthaScreen Eu Kinase Binding); details: averaged IC50; MER 5 nM; 60-minute incubation at 22° C.; TR-FRET
T3 construct: His-tagged recombinant human MER cytoplasmic domain
T3 sequence (Q12866 527-999 limits assumed): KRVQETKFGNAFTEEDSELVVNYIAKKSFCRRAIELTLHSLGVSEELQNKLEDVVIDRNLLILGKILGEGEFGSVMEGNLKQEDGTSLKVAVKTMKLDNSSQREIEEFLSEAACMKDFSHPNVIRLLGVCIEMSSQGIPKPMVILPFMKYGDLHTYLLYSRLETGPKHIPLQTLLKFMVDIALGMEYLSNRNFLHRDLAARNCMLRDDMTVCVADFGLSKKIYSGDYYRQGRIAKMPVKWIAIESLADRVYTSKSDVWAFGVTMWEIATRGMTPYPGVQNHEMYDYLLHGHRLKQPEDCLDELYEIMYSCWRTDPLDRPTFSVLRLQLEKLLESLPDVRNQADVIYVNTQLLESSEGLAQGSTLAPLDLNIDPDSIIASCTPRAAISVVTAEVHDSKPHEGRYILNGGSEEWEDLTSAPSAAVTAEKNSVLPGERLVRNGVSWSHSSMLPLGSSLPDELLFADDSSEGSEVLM
Protocol: Compounds disclosed herein were screened for their ability to inhibit […] kinase using Invitrogen's LanthaScreen™Eu Kinase Binding technology. His-tagged recombinant human MER cytoplasmic domain (5 nM) was incubated with 20 nM Alexa-Fluor® Tracer 236 (PR9078A), 2 nM biotinylated anti-His (Cat. No. M4408), and 2 nM europium-labeled Streptavidin (Cat. No. PV5899) along with test compound in a buffer consisting of 25 mM HEPES, pH 7.4, 10 mM MgCl 2, 0.01% Triton X-100, and 2% DMSO. Compounds were typically prepared in a threefold serial dilution in DMSO and added to the assay to give the appropriate final concentration. After a 60-minute incubation at 22° C., the reaction was measured using a PerkinElmer EnVision multimode plate reader via TR-FRET dual wavelength detection, and the percent of control (POC) was calculated using a ratiometric emission factor. […] The POC values are fit to a 4 parameter logistic curve and the IC50 value is point where the curve crosses 50 POC.

human MET kinase Y1230S = biological target: T4, human MET kinase Y1230S (Homo sapiens, UniProt P08581, Y1230S); assay: c-Met Enzyme Assay, Y1230S mutant; type: binding; details: averaged IC50; Y1230S 8 nM; 60-minute incubation at 22° C.; read-out: Y1230 S IC50
T4 construct: GST-tagged recombinant human MET kinase domain; purchased Signal Chem
T4 sequence (P08581 1078-1345 Y1230S): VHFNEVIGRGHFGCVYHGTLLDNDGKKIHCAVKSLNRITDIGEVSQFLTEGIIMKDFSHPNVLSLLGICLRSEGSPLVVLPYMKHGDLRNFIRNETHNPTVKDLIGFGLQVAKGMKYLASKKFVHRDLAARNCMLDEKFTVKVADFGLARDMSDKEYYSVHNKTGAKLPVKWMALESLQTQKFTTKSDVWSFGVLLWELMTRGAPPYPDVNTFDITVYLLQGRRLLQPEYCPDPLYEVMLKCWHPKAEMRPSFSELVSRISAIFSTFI
Protocol: as §1

human MET kinase Y1230C = biological target: T5, human MET kinase Y1230C (Homo sapiens, UniProt P08581, Y1230C); assay: c-Met Enzyme Assay, Y1230C mutant; type: binding; details: averaged IC50; Y1230C 2 nM; 60-minute incubation at 22° C.; read-out: Y1230 C IC50
T5 construct: GST-tagged recombinant human MET kinase domain; purchased Signal Chem
T5 sequence (P08581 1078-1345 Y1230C): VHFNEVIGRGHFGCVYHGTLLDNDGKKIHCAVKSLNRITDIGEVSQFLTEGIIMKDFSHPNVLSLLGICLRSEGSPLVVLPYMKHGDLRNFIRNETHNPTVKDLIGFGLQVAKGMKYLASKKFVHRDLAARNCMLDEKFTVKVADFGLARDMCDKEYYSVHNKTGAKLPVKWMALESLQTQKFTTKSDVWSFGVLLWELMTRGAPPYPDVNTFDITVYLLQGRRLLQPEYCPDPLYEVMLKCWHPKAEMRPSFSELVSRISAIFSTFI
Protocol: as §1

human MET kinase F1200I = biological target: T6, human MET kinase F1200I (Homo sapiens, UniProt P08581, F1200I); assay: c-Met Enzyme Assay, F1200I mutant; type: binding; details: averaged IC50; F1200I 2 nM; 60-minute incubation at 22° C.
T6 construct: GST-tagged recombinant human MET kinase domain; purchased Signal Chem
T6 sequence (P08581 1078-1345 F1200I limits assumed): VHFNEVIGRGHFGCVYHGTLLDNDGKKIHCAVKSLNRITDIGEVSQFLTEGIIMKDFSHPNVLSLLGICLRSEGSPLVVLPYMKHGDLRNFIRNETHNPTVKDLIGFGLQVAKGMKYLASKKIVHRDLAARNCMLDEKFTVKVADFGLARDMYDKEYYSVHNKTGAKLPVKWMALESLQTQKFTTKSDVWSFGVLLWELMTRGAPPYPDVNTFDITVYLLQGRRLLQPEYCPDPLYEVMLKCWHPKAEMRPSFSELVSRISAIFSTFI
Protocol: as §1

human MET kinase D1228H = biological target: T7, human MET kinase D1228H (Homo sapiens, UniProt P08581, D1228H); assay: c-Met Enzyme Assay, D1228H mutant; type: binding; details: averaged IC50; D1228H 2 nM; 60-minute incubation at 22° C.; read-out: D1228 H IC50
T7 construct: GST-tagged recombinant human MET kinase domain; purchased Signal Chem
T7 sequence (P08581 1078-1345 D1228H): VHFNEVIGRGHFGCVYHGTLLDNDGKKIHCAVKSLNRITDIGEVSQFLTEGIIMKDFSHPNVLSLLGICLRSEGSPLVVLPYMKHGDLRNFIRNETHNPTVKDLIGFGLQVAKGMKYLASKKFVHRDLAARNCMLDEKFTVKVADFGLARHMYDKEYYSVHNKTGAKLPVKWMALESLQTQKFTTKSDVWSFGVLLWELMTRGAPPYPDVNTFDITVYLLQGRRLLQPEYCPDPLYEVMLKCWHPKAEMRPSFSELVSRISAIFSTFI
Protocol: as §1

human MET kinase Y1230H = biological target: T8, human MET kinase Y1230H (Homo sapiens, UniProt P08581, Y1230H); assay: c-Met Enzyme Assay, Y1230H mutant; type: binding; details: averaged IC50; Y1230H 5 nM; 60-minute incubation at 22° C.; read-out: Y1230 H IC50
T8 construct: GST-tagged recombinant human MET kinase domain; purchased Signal Chem
T8 sequence (P08581 1078-1345 Y1230H): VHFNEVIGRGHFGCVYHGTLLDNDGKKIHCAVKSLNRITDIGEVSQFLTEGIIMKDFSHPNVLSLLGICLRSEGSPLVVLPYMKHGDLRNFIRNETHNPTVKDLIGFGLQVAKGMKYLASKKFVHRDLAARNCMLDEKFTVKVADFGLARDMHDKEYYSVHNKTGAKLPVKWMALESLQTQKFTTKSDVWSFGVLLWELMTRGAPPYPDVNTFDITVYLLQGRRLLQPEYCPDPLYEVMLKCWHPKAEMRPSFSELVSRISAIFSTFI
Protocol: as §1

COc1cc2nccc(Oc3ccc(NC(=O)c4cn(CC(C)(C)O)cc(-c5ccc(F)cc5)c4=O)nc3)c2cc1OC [Example 9, N-(5-((6,7-dimethoxyquinolin-4-yl)oxy)pyridin-2-yl)-5-(4-fluorophenyl)-1-(2-hydroxy-2-methylpropyl)-4-oxo-1,4-dihydropyridine-3-carboxamide]
IC50 [1]: 5.6 nM | IC50 [2]: 13 nM | IC50 [3]: 3 nM | IC50 (human MET kinase Y1230S): 9.1 nM | IC50 (human MET kinase Y1230C): 6.2 nM | IC50 (human MET kinase F1200I): 6.4 nM | IC50 (human MET kinase D1228H): 10 nM | IC50 (human MET kinase Y1230H): 13.1 nM

CCCn1cc(C(=O)Nc2ccc(Oc3ccnc4cc(OC)c(OC)cc34)cn2)c(=O)c(-c2ccc(F)cc2)c1 [Example 10, N-(5((6,7-dimethoxyquinolin-4-yl)oxy)pyridin-2-yl)-5-(4-fluorophenyl)-4-oxo-1-propyl-1,4-dihydropyridine-3-carboxamide]
IC50 [1]: 3.5 nM | IC50 [2]: 15 nM | IC50 [3]: 8 nM | IC50 (human MET kinase Y1230S): 2.8 nM | IC50 (human MET kinase Y1230C): 3.1 nM | IC50 (human MET kinase F1200I): 4.2 nM | IC50 (human MET kinase D1228H): 3.7 nM | IC50 (human MET kinase Y1230H): 6.1 nM

COc1cc2nccc(Oc3ccc(NC(=O)c4cn(CC(C)C)cc(-c5ccc(F)cc5)c4=O)nc3)c2cc1OC [Example 11, N-(5-((6,7-dimethoxyquinolin-4-yl)oxy)pyridin-2-yl)-5-(4-fluorophenyl)-1-isobutyl-4-oxo-1,4-dihydropyridine-3-carboxamide]
IC50 [1]: 7.7 nM | IC50 [2]: 33 nM | IC50 [3]: 16 nM | IC50 (human MET kinase Y1230S): 4.9 nM | IC50 (human MET kinase Y1230C): 6.5 nM | IC50 (human MET kinase F1200I): 6.9 nM | IC50 (human MET kinase D1228H): 6.5 nM | IC50 (human MET kinase Y1230H): 9.3 nM

COc1cc2nccc(Oc3ccc(NC(=O)c4cn(C5CCOCC5)cc(-c5ccc(F)cc5)c4=O)nc3)c2cc1OC [Example 12, N-(5((6,7-dimethoxyquinolin-4-yl)oxy)pyridin-2-yl)-5-(4-fluorophenyl)-4-oxo-1-(tetrahydro-2H-pyran-4-yl)-1,4-dihydropyridine-3-carboxamide]
IC50 [1]: 5.6 nM | IC50 [2]: 23 nM | IC50 [3]: 4 nM | IC50 (human MET kinase Y1230S): 4.6 nM | IC50 (human MET kinase Y1230C): 5.5 nM | IC50 (human MET kinase F1200I): 7 nM | IC50 (human MET kinase D1228H): 8.4 nM | IC50 (human MET kinase Y1230H): 5.4 nM

COc1cc2nccc(Oc3ccc(NC(=O)c4cn(CC(=O)N(C)C)cc(-c5ccc(F)cc5F)c4=O)nc3)c2cc1OC [Example 13, 5-(2,4-difluorophenyl)-N-(5((6,7-dimethoxyquinolin-4-yl)oxy)pyridin-2-yl)-1-(2-(dimethylamino)-2-oxoethyl)-4-oxo-1,4-dihydropyridine-3-carboxamide]
IC50 [1]: 4.9 nM | IC50 [2]: 22 nM | IC50 [3]: 5 nM | IC50 (human MET kinase Y1230S): 6 nM | IC50 (human MET kinase Y1230C): 3.3 nM | IC50 (human MET kinase F1200I): 4.8 nM | IC50 (human MET kinase D1228H): 4.4 nM | IC50 (human MET kinase Y1230H): 5.7 nM

COc1cc2nccc(Oc3ccc(NC(=O)c4cn(CC(=O)N5CCCC5)cc(-c5ccc(F)cc5F)c4=O)nc3)c2cc1OC [Example 14]
IC50 [1]: 15.9 nM | IC50 [2]: 129 nM | IC50 [3]: 12 nM | IC50 (human MET kinase Y1230S): 16.3 nM | IC50 (human MET kinase Y1230C): 5.5 nM | IC50 (human MET kinase F1200I): 12.4 nM | IC50 (human MET kinase D1228H): 35.4 nM | IC50 (human MET kinase Y1230H): 22.3 nM

COc1cc2nccc(Oc3ccc(NC(=O)c4cn(CC(=O)N5CCOCC5)cc(-c5ccc(F)cc5F)c4=O)nc3)c2cc1OC [Example 15, 5-(2,4-difluorophenyl)-N-(5-((6,7-dimethoxyquinolin-4-yl)oxy)pyridin-2-yl)-1-(2-morpholino-2-oxoethyl)-4-oxo-1,4-dihydropyridine-3-carboxamide]
IC50 [1]: 29.5 nM | IC50 [2]: 292 nM | IC50 [3]: 29 nM | IC50 (human MET kinase Y1230S): 53.3 nM | IC50 (human MET kinase Y1230C): 66.8 nM | IC50 (human MET kinase F1200I): 24.4 nM | IC50 (human MET kinase D1228H): 99.1 nM | IC50 (human MET kinase Y1230H): 37.5 nM

CCC(CC)n1cc(C(=O)Nc2ccc(Oc3ccnc4cc(OC)c(OC)cc34)cn2)c(=O)c(-c2ccc(F)cc2F)c1 [Example 16, 5-(2,4-difluorophenyl)-N-(5-((6,7-dimethoxyquinolin-4yl)oxy)pyridin-2-yl)-4-oxo-1-(pentan-3-yl)-1,4-dihydropyridine-3-carboxamide]
IC50 [1]: 4.6 nM | IC50 [2]: 11 nM | IC50 [3]: 9 nM | IC50 (human MET kinase Y1230S): 6 nM | IC50 (human MET kinase Y1230C): 6.1 nM | IC50 (human MET kinase F1200I): 6.8 nM | IC50 (human MET kinase D1228H): 5.4 nM | IC50 (human MET kinase Y1230H): 7.7 nM

CCCC(CCC)n1cc(C(=O)Nc2ccc(Oc3ccnc4cc(OC)c(OC)cc34)cn2)c(=O)c(-c2ccc(F)cc2F)c1 [Example 17, 5-(2,4-difluorophenyl)-N-(5-((6,7-dimethoxyquinolin-4yl)oxy)pyridin-2-yl)-1-(heptan-4-yl)-4-oxo-1,4-dihydropyridine-3-carboxamide]
IC50 [1]: 17.1 nM | IC50 [2]: 76 nM | IC50 [3]: 52 nM | IC50 (human MET kinase Y1230S): 11.4 nM | IC50 (human MET kinase Y1230C): 15.5 nM | IC50 (human MET kinase F1200I): 23.4 nM | IC50 (human MET kinase D1228H): 13.3 nM | IC50 (human MET kinase Y1230H): 26.9 nM

COc1cc2nccc(Oc3ccc(NC(=O)c4cn(C(C)C)cc(-c5ccc(F)cc5Cl)c4=O)nc3)c2cc1OC [Example 18, 5-(2-chloro-4-fluorophenyl)-N-(5-((6,7-dimethoxyquinolin-4-yl)oxy)pyridin-2-yl)-1-isopropyl-4-oxo-1,4-dihydropyridine-3-carboxamide]
IC50 [1]: 3.2 nM | IC50 [2]: 4 nM | IC50 [3]: 2 nM | IC50 (human MET kinase Y1230S): 2.7 nM | IC50 (human MET kinase Y1230C): 2.4 nM | IC50 (human MET kinase F1200I): 4.3 nM | IC50 (human MET kinase D1228H): 2.4 nM | IC50 (human MET kinase Y1230H): 4.6 nM
